Peptide text beside a SMILES is read from it.

In data set [1] the test system is primary rat cortical neurons. In words: Cytotoxicity test on primary rat cortical neurons. The following applies: wild-type primary rat cortical neurons.
The subject of data set [2] is DsRedCAG250 flies. The experiment in a line: Climbing ability assay, DsRedCAG250 flies. The format is in vivo, Drosophila. How it is done:
(§1) For pseudopupil assay, flies were raised at 21.5° C. on cornmeal medium supplemented with dry yeast. For climbing ability assay, lifespan analysis as well as external eye assay, flies were raised at 25° C. on cornmeal medium supplemented with dry yeast. We usually feed flies at larval stage unless otherwise indicated. For larval stage treatment, third instar larvae were fed with different concentration of TAT-P3L dissolved in 2% sucrose solution for 2 h and then continued to culture in standard fly food. For adult stage treatment, 5 or 10 day-old adult flies were starved for 8 h and then fed with different concentrations of TAT-P3L dissolved in 2% sucrose solution overnight. After treatment, flies were cultured in standard fly food.
(§2) Pseudopupil assay^18 was performed on 12 day-old adult flies except for Httexon1CAG93 which 1 day-old adult flies were used for the assay. Images were captured by SPOT Insight CCD camera controlled by the SPOT Advanced software (Diagnostic instruments Inc.). External eye assay was performed on 1 day-old adult of CTG480 flies and 2 day-old adult of CGG90 flies using an Olympus SZX-12 stereomicroscope. […] Fly climbing ability was analyzed by negative geotaxis. […] After 1 h recovery, flies were banged to the bottom, and then scored for climbing ability as the percentage of flies remaining at the bottom (<2 cm) at 25s. […]

The test system of the next data set is DsRedCAG100 flies. The experiment in a line: Pseudopupil assay, DsRedCAG100 flies. The format is in vivo, Drosophila. How it is done:
as §1, §2

A further data set deals with CGG90 flies. The experiment in a line: External eye assay, CGG90 flies (Fragile X syndrome). The class given is in vivo, Drosophila. How it is done: as §1, §2
The test system of data set [3] is MJDCAG78-expressing HEK293 cells. The experiment in a line: LDH cytotoxicity assay, MJD disease cell model. The following applies: MJDCAG78-expressing HEK293, CAG-repeat RNA and polyQ protein. The class given is cell-based, Human. How it is done:
(§3) Human embryonic kidney 293 cells were seeded on a 24-well plate at a density of 0.5×10^5, and pcDNA3.1-MJDCAG27/78 or, pEGFPCAG78 or, pcDNA3.1-SCA2CAG22/72/104 or pEGFP-trHttCAG23/73/145 construct was used to transfect the cells. Lactate dehydrogenase enzyme activity in the cell culture medium was measured 72 h post-transfection and drugs treatment using the Cytotox 96 non-radioactive cytotoxicity assay (Promega).

For a further data set, the system named is flMJDCAG84 flies. The experiment in a line: Pseudopupil assay, flMJDCAG84 flies. The class given is in vivo, Drosophila. The following applies: MJD disease model. How it is done: as §1, §2
Data set [4] concerns SCA2CAG72/104-expressing HEK293 cells. The experiment in a line: LDH cytotoxicity assay, SCA2 disease cell model. The following applies: SCA2CAG72/104-expressing HEK293, CAG-repeat RNA and polyQ protein. The class given is cell-based, Human. How it is done:
as §3

Data set [5] has as its system trHttCAG72/145-expressing HEK293 cells. The experiment in a line: LDH cytotoxicity assay, Htt disease cell model. The format is cell-based, Human. The following applies: trHttCAG72/145-expressing HEK293, CAG-repeat RNA and polyQ protein. How it is done:
as §3

The subject of data set [6] is pre-rRNA in DsRedCAG100 flies. In words: pre-rRNA expression by real-time PCR in DsRedCAG100 flies. The following applies: DsRedCAG100 Drosophila model, RNA toxicity only. The format is in vivo. How it is done: (§4) RNA was extracted from cells by Trizol reagent (Life Technologies), and 1 μg of purified RNA was then used for reverse-transcription using the ImPromII™ Reverse Transcription System (Promega). Random hexamer (Roche) was used as primers in reverse transcription. Taqman gene expression assays were performed on an ABI 7500 Real-time PCR system and data were analyzed as previously described^10. The following probes were used: pre-45s rRNA (Assay ID: AILJIZM), actin (Assay ID: Hs99999903_m1), pre-rRNA (Assay ID: AIMSG5U) and GAPDH for Drosophila (Assay ID: Dm01841186).
as §1
On the technique in general: Quantitative PCR measures a nucleic acid by following its amplification.

A further data set relates to Httexon1CAG93 flies. The experiment in a line: Pseudopupil assay, Httexon1CAG93 flies. The class given is in vivo, Drosophila. As to conditions: Htt disease model, 1 day-old adults. How it is done: as §1, §2
Data set [7] has as its system pre-45s rRNA in EGFPCAG78 RNA expressing-HEK293 cells. The experiment in a line: pre-45s rRNA expression by real-time PCR in EGFPCAG78 RNA-expressing HEK293 cells. The class given is cell-based, Human. As to conditions: expanded CAG-repeat RNA-expressing HEK293 cells. How it is done: as §4
For data set [8], the system named is EGFPCAG78-expressing HEK293 cells. In words: LDH cytotoxicity assay, EGFPCAG78 (only RNA toxicity). The class given is cell-based, Human. How it is done: as §3
The next data set has as its system CTG480 flies. In words: External eye assay, CTG480 flies (Myotonic dystrophy 1). The format is in vivo, Drosophila. How it is done:
as §1, §2

Data set [9] concerns DsRedCAG250 flies. The experiment in a line: Lifespan analysis, DsRedCAG250 flies. The format is in vivo, Drosophila. How it is done: as §1, §2

With `CC[C@H](C)[C@H](NC(=O)CNC(=O)[C@H](CCCCN)NC(=O)[C@H](CO)NC(=O)[C@H](CCCCN)NC(=O)CNC(=O)[C@H](CC(=O)O)NC(=O)[C@H](CCCCN)NC(=O)[C@H](CO)NC(=O)[C@@H](NC(=O)[C@H](CC(C)C)NC(=O)[C@H](CCCNC(=N)N)NC(=O)[C@@H](NC(=O)[C@H](CCC(=O)O)NC(=O)[C@H](C)N)[C@@H](C)CC)C(C)C)C(=O)N[C@@H](C)C(=O)N[C@@H](Cc1ccc(O)cc1)C(=O)N[C@H](C(=O)N[C@@H](CCC(=O)O)C(=O)N[C@@H](Cc1ccccc1)C(=O)N[C@@H](CCCCN)C(=O)O)[C@@H](C)CC` [P3L] (H-AEIRLVSKDGKSKGIAYIEFK-OH), the “concentration with no observed cytotoxicity (viability not compromised)” value in [1] is given as “up to 25 μM”.

As a reminder, the IC50 is the midpoint of a concentration-inhibition curve. Take `CC[C@H](C)[C@H](NC(=O)CNC(=O)[C@H](CCCCN)NC(=O)[C@H](CO)NC(=O)[C@H](CCCCN)NC(=O)CNC(=O)[C@H](CC(=O)O)NC(=O)[C@H](CCCCN)NC(=O)[C@H](CO)NC(=O)[C@@H](NC(=O)[C@H](CC(C)C)NC(=O)[C@H](CCCNC(=N)N)NC(=O)[C@@H](NC(=O)[C@H](CCC(=O)O)NC(=O)[C@H](C)NC(=O)[C@H](CCCNC(=N)N)NC(=O)[C@H](CCCNC(=N)N)NC(=O)[C@H](CCCNC(=N)N)NC(=O)[C@H](CCC(N)=O)NC(=O)[C@H](CCCNC(=N)N)NC(=O)[C@H](CCCNC(=N)N)NC(=O)[C@H](CCCCN)NC(=O)[C@H](CCCCN)NC(=O)[C@H](CCCNC(=N)N)NC(=O)CNC(=O)[C@@H](N)Cc1ccc(O)cc1)[C@@H](C)CC)C(C)C)C(=O)N[C@@H](C)C(=O)N[C@@H](Cc1ccc(O)cc1)C(=O)N[C@H](C(=O)N[C@@H](CCC(=O)O)C(=O)N[C@@H](Cc1ccccc1)C(=O)N[C@@H](CCCCN)C(=O)O)[C@@H](C)CC` [TAT-P3L] (H-YGRKKRRQRRRAEIRLVSKDGKSKGIAYIEFK-OH): the climbing ability result in the data set on DsRedCAG250 flies [2] (larval treatment, 5, 10 and 15 day-old adult DsRedCAG250 flies) is “ameliorated the climbing ability”; in the data set on DsRedCAG250 flies [2] (late adult stage treatment, DsRedCAG250 flies already showing degeneration), “dose-dependent improvement of the climbing ability”. Moreover, in the data set on DsRedCAG100 flies (50 uM concentration), the “suppression of neurodegeneration compared with TAT-P3” value is on record as “suppressed neurodegeneration more effectively than TAT-P3”. The “inhibition of neurodegeneration (retinal degeneration, pseudopupil assay)” value in the data set on DsRedCAG100 flies (larval feeding, 12 day-old adults) was “concentration-dependent inhibition of neurodegeneration”. In addition, the “concentration with no observed cytotoxicity (viability not compromised)” value in data set [1] is “up to 25 μM”. In addition, the “effect on degenerative phenotype (specificity)” value in the data set with CGG90 flies and with CTG480 flies was “did not mitigate the phenotypes” throughout. Besides, the “suppression of cell death” value in data set [3], in data set [4] and in data set [5] was “concentration-dependent suppression in cell death” in each case. Also, the “suppression of retinal degeneration (pseudopupil assay)” value in the data set with flMJDCAG84 flies and with Httexon1CAG93 flies was “suppressed retinal degeneration” in each case. The pre-rRNA expression level entry in [6] is “restore pre-rRNA expression level”. In data set [7], the “pre-45s rRNA transcription level” value is recorded as “restore the pre-45s rRNA transcription level”. For the same molecule, in [8] (LDH enzyme activity, 72 h post-transfection and treatment), the “suppression of EGFPCAG78 RNA-induced cell death” value was “significantly suppressed”. Besides, the IC50 in [8] (concentration that reduced LDH enzyme activity by 50% vs untreated control, EGFPCAG78 HEK293, read-out: IC50 in inhibiting expanded CAG-repeat RNA-induced cell death) stood at 700 nM. The lifespan result in the data set with DsRedCAG250 flies [9] is on record as “extended the lifespan”.
